The test system of data set [1] is NIH3T3 and PC-3 cells. The settings on record: cited from earlier work.
The target of data set [2] is RhoA (Homo sapiens, UniProt P61586). The conditions noted are these: cited from earlier work.
For data set [3], the system named is HCT116 cell line. Put plainly: Soft agar assay (anchorage-independent colony formation). Format: cell-based. The settings on record: HCT116, 7 days. From the text: Colony formation in soft agar is the most widely used assay to evaluate anchorage-independent growth potential and represents one of the best in vitro assays that correlates strongly with in vivo tumorigenic cell growth potential. Normal cells require adherence and spreading onto a solid substratum in order to remain viable and proliferate. In contrast, cancer cell line HCT116 (ATCC clone number CCL-247) lost this requirement and therefore can form proliferating colonies of cells when suspended in a semisolid agar medium. The assay was performed in 24-well plates, using duplicates wells for each compound concentration. Briefly, a 0.5% Bacto™ Agar (BD Biosciences) bottom layer (prepared in HCT116 complete growth medium supplemented or not with the tested compound) was poured first and allowed to harden (0.3 ml per well). HCT116 were trypsinized to generate a uniform single cell suspension. Five×10^3 cells per well were resuspended in 0.3% agar supplemented with complete growth medium, with or without several compound concentrations to form the top layer (0.3 ml per well). HCT116 were allowed to grow for 7 days in these conditions and then analysed for colonies formation. Analysis was performed from pictures taken under a microscope that are representative from 2 different fields of the well. For each field, 2 different focal plans were taken and were merged using ImageJ software. The number of colonies were scored and colonies' size were measured. IC50 were determined for the number and size of colonies using GraphPad Prism (GraphPad) software. Data are mean values of 2 to 3 independent experiments.

For data set [4], the target named is T1, Rac1 activated by DH/PH domain of Guanine nucleotide Exchange Factor Tiam1 (Rac1/Tiam1) (Homo sapiens, UniProt P63000).
T1 construct: made in house; host or cells: E. coli BL21 Codon+RIL
Briefly: Nucleotide binding assay: BODIPY-GTP binding to Rac1 activated by Tiam1 DH/PH. Type of data set: biochemical. The conditions noted are these: for inhibition at 50 µM: read-out: Rac1 % inhibition of BODIPY-GTP binding. Here is the method: (§1) Fluorescence of GTP analog BODIPY-GTP increases when it binds to small G proteins. This property was used to assess ability of compounds to inhibit nucleotide binding to Rac1, Rac1b and Cdc42. 2 μM GST-Rac1 and 6 μg His6-Tiam1-DH/PH were diluted in a buffer containing 20 mM Tris, 50 mM NaCl, and 1 mM MgCl2. This mixture was loaded in a 96-well plate. Fluorescence recording were started (λEx: 485 nm; λEm: 538 nm) using a spectrofluorimeter (Fluoroskan; Thermolab Systems). Assay was initiated by the addition of 2 μM BODIPY-GTP with or without various doses of test compound. Fluorescence values were recorded, and data were processed as follows: background fluorescence (unbound BODIPY-GTP) was retrieved from fluorescence values.
(§2) This assay allows determining whether compounds can inhibit the binding of a fluorescent nucleotide to recombinant small G proteins of interest. The effect of various alkaloid compounds on binding of BODIPY-GTP to Rac1 activated by DH/PH domain of Guanine nucleotide Exchange Factor Tiam1 (Rac1/Tiam1), Rac1b and Cdc42 is described below.

Data set [5] addresses T2, Cdc42 (Homo sapiens, UniProt P60953).
T2 construct: GST (N); made in house; host or cells: E. coli BL21 Codon+RIL
Briefly: Nucleotide binding assay: BODIPY-GTP binding to Cdc42. The settings on record: for inhibition at 50 µM: read-out: Cdc42 % inhibition of BODIPY-GTP binding. Format: biochemical. Here is the method:
as §1, §2

In data set [6] the target is T3, HEK293 cells overexpressing human Rac1b (Homo sapiens, UniProt P63000).
T3 construct: expressed in transfected cells; host or cells: HEK293
Briefly: Rac1b activation assay (G-LISA). Format: cell-based. Here is the method: Rac1b activation assay: HEK293 cells overexpressing human Rac1b were plated in 100 mm diameter dishes and grown for 5 days in MEM medium supplemented with 10% FBS, L-Glutamine and antibiotics. Cells were then treated with 50 μM of compounds or the solvent for 5 minutes, and the GTP loading of Rac1b was measured using a Rac Activation Assay Kit (Cytoskeleton) according to manufacturer's recommendations. Briefly, this assay uses a 96-well plate coated with RBD domain of Rho-family effector proteins. […] The signal is then developed with OPD reagent.

The subject of data set [7] is protein kinase C (PKC). The settings on record: cited from earlier work.
The target of data set [8] is T4, Rac1b (Homo sapiens, UniProt P63000).
T4 construct: GST (N); made in house; host or cells: E. coli BL21 Codon+RIL
Briefly: Nucleotide binding assay: BODIPY-GTP binding to Rac1b. The settings on record: for IC50: dose-response study; for inhibition at 50 µM: read-out: Rac1b % inhibition of BODIPY-GTP binding; for selectivity for Rac1b: versus Rac1 or Cdc42. Type of data set: biochemical. Here is the method:
as §1, §2

[9] abbreviates: final concentration of 50 μM, Rac1/Tiam1.
Setting [10] is: HEK293, 50 μM, 5 minutes, GTP loading of Rac1b, read-out: G-LISA % inhibition @ 50 μM.
[11] abbreviates: Homo sapiens, HCT-116, 168 h, read-out: Soft agar assay IC50, Clone Number.
Where [12] appears, read: Homo sapiens, HCT-116, 168 h, read-out: Soft agar assay IC50, Clone Size.

“Also recorded” adds a separate entry of the source. Where a name gives a salt, the structure may show the parent alone. Read-outs that look alike come from different tables or passages of the source.

T2 sequence (P60953 whole entry, species assumed): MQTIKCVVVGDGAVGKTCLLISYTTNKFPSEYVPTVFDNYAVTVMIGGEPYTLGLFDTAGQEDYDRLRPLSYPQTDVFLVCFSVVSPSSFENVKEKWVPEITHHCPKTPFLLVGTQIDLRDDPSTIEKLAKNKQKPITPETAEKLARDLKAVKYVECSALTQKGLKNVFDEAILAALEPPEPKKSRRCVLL
Sequence of RhoA (P61586 whole entry, species assumed): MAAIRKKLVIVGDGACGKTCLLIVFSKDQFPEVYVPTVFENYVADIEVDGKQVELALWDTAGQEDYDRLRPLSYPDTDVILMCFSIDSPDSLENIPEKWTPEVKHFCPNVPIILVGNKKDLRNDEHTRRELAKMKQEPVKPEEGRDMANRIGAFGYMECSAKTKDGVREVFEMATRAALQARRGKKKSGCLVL

By IC50 is commonly meant the concentration that inhibits the measured activity by half. For the molecule `CCN(CC)CCCC(C)Nc1nc(C)cc(Nc2ccc3nc(C)cc(N)c3c2)n1` (stereo not drawn) [NSC 23766, reference compound], the “effective dose, Rac1-mediated cellular functions” value in [1] was 50 to 100 µM. For the same molecule, the “effect on RhoA activation” value in data set [2] is listed as “no effect”. Also, the IC50 in data set [3] (read-out: Soft agar assay IC50, Clone Number) came out at 64200 ± 4800 nM; in data set [3] (read-out: Soft agar assay IC50, Clone Size), 27900 ± 5000 nM.

As a reminder, the inhibition is the relative decrease from the control value, in per cent. For `COc1ccc2c(c[n+](C)c3c4cc5c(cc4ccc23)OCO5)c1OC.[Cl-]` [Compound 14, 1,2-dimethoxy-N-methyl[1,3]benzodioxolo[5,6-c]phenanthridinium chloride, reference compound], the “maximum inhibition on Rac1/Tiam1” value in [4] (dose-response study (1-2-5-10-25-50-75-100 μM)) is given as “around 25%”. Besides, the inhibition at 50 µM came to 25 ± 6% in data set [4] (setting [9]), 35 ± 10% in data set [5] (final concentration of 50 μM), 40 ± 10% in data set [6] (setting [10]) and 100% in data set [8] (final concentration of 50 μM). Moreover, the half-maximal inhibitory concentration (IC50) was found to be 2400 ± 200 nM in data set [3] (setting [11]), 2000 ± 300 nM in data set [3] (setting [12]) and 6.7 ± 0.9 µM in data set [8]. Further, the “activity against PKC” value in [7] is listed as 1 μm. The “selectivity for Rac1b” value in [8] is recorded as “highly selective for Rac1b; also recorded: some significant selectivity for Rac1b”.

With `C[n+]1cc2c3c(ccc2c2ccc4cc5c(cc4c21)OCO5)OCO3.O.[Cl-]` [Compound 13, 13-methyl-[1,3]benzodioxolo[5,6-c]-1,3-dioxolo[4,5-i]phenanthridinium chloride hydrate, reference compound], the concentration for half-maximal inhibition (IC50) in data set [4] (dose-response study) turned out to be 57.8 ± 4.3 µM; in data set [5] (dose-response study), 32.1 ± 0.7 µM; in [3] (setting [11]), 1900 ± 600 nM; in data set [3] (setting [12]) it was 1500 ± 200 nM; in data set [8], 4.6 ± 0.4 µM. The inhibition at 50 µM in data set [4] was determined as 45 ± 4%; in data set [5], 63 ± 2%; in data set [6] (HEK293, read-out: G-LISA % inhibition @ 50 μM), 50 ± 3%; in data set [8] it was 100%. In addition, the “activity against PKC” value in [7] is 217 μm. Moreover, in data set [8] (from IC50s), the “fold more active on Rac1b than on Rac1/Tiam1” value turned out to be 13 fold. Besides, the “times more active on Rac1b than on Cdc42” value in data set [8] (from IC50s) was determined as 6 times. In addition, in data set [8], the “selectivity for Rac1b” value is “some significant selectivity for Rac1b”.

For `COc1cc2cc(-c3cccc(NS(C)(=O)=O)c3)nc(C)c2cc1OC` [Compound 30, N-(3-(6,7-Dimethoxy-1-methylisoquinolin-3-yl)phenyl)methanesulfonamide hydrochloride], the inhibition at 50 µM was determined as 9 ± 3% in data set [4] (setting [9]), 4 ± 4% in data set [5] (final concentration of 50 μM), 12 ± 2% in data set [6] (setting [10]) and 16 ± 2% in data set [8] (final concentration of 50 μM).

Usually melting point stands for the temperature, or range, at which the solid turns liquid. The molecule `Cl.Oc1cc2c(cc1O)CN(Cc1cccc(O)c1O)CC2` [Compound 19, 2-(2,3-Dihydroxybenzyl)-6,7-dihydroxy-1,2,3,4-tetrahydroisoquinolinium chloride] had a melting point of 178.8 °C. The inhibition at 50 µM in [4] (setting [9]) is 9 ± 2%. Besides, the inhibition at 50 µM in data set [5] (final concentration of 50 μM) stood at 17 ± 3%. In addition, the inhibition at 50 µM in [8] (final concentration of 50 μM) is 19 ± 3%.

With `COc1cc2cc(-c3cccc(N)c3)nc(C)c2cc1OC` [Compound 28, 3-(6,7-Dimethoxy-1-methylisoquinolin-3-yl)aniline dihydrochloride], the inhibition at 50 µM in data set [4] (setting [9]) was 13 ± 2%; in data set [5] (final concentration of 50 μM), 3 ± 5%; in data set [6] (setting [10]), 27 ± 4%; in data set [8] (final concentration of 50 μM), 20 ± 2%.
